IC50 and hygroscopicity data for 2 molecules are collected here from patent US10500218B2, “Uptake of pharmaceuticals within cyclodextrin-based porous materials” (Northwestern University, priority 2015, dated 2019).

Bounds are passed on as bounds.

Data set [1] has as its system MCF-10A (human mammary epithelial cells). The experiment in a line: Growth inhibition / cell viability (Cell Titer-Glo) on MCF-10A cells. Format: cell-based. The settings on record: 48 hours, tested up to 100 μM. How it is done:
(§1) Toxicity studies of both CD-MOF-1 and ibuprofen were carried out in vitro on two cell lines: MCF-10A (human mammary epithelial cells) (FIG. 4A) and MDA-MB-231 (human breast adenocarcinoma) (FIG. 4B). For both cell lines, no IC50 value could be obtained for CD-MOF-1, and ibuprofen up to concentrations of 100 μM.
(§2) Cell Studies. For cell studies, CD-MOF-1 was solubilized in H2O and the free-acid of ibuprofen was solubilized in Me2SO. The growth inhibition of various cell lines was determined according to the protocols from the NCl/NIH Developmental Therapeutics Program, and in collaboration with the Northwestern University Developmental Therapeutics Core Facility. Cells were plated in triplicate in 96 well plates. The cells were plated at densities of 10,000 per well in 90 μL for MDA-MB-231; and 25,000 per well in 90 μL for MCF-10A. The MDA-MB-231 cells were cultured in RPMI1640 media supplemented with 10% Fetal Bovine Serum (FBS), and 2 mM glutamine with 5% CO2 at 37° C. For experiments, 5% of FBS and 50 μg/mL of gentamycin were used. […]
(§3) Time zero cells (Tz) were processed according to the Promega Cell Titer Glo, and the following day Cell Titer-Glo Luminescent Cell Viability Assay. […] The plates were shaken for 2 min and allowed to sit for activation prior to reading for 10 min. Plates were read on a BioTek reader using the luminescence program.

The test system of data set [2] is MDA-MB-231 (human breast adenocarcinoma). Briefly: Growth inhibition / cell viability (Cell Titer-Glo) on MDA-MB-231 cells. Type of data set: cell-based. The conditions noted are these: 48 hours, tested up to 100 μM. On the procedure: as §1, §2, §3
A general note: ATP-based viability assays read luminescence as a measure of living cells.

Data set [3] can be described thus: Storage under ambient conditions: hygroscopicity and crystallinity (PXRD). The conditions noted are these: atmospheric / ambient conditions, several months for the CD-MOF-1 formulation. Type of data set: physicochemical. On the procedure: FIG. 3A depicts powder X-ray diffraction (PXRD) of freshly prepared CD-MOF-1 formulations of ibuprofen prepared by co-crystallization from the potassium salt of ibuprofen and adsorption of the deprotonated acid form of ibuprofen within a pre-existing CD-MOF-1, compared to the predicted I432 diffraction pattern.
Three formulations were tested: ibuprofen, potassium salt, and a physical mixture of 23 wt. % ibuprofen, potassium salt with γ-CD (which is analogous to a stoichiometric loading of ibuprofen within CD-MOF-1 created by co-crystallization) were used as control samples, and the third formulation contained CD-MOF-1 loaded with 26 wt. % ibuprofen by the adsorption protocol. The potassium salt of ibuprofen was considered to be the most appropriate control form of ibuprofen in this study, as the results of the solvent-dependent adsorption loading of ibuprofen is evidence that an anion exchange process was occurring within CD-MOf-1, i.e., deprotonation of the free-acid form of ibuprofen, which was facilitated by water-miscible polar solvents. […] It is used, however, in rapid release gelatin capsules.

One may read the IC50 as the concentration at which inhibition is half-maximal. Read a high IC50 as lower potency. As for `CC(C)Cc1ccc(C(C)C(=O)O)cc1` (racemic) [ibuprofen], the IC50 in data set [1] and in data set [2] was over 100 µM in each case. As for `CC(C)Cc1ccc(C(C)C(=O)[O-])cc1.[K+]` (stereo not drawn) [potassium salt of ibuprofen, ibuprofen, potassium salt], the hygroscopicity result in data set [3] is on record as “very hygroscopic”.
